From paper PMC5218480 (PLoS ONE, 2017)

Tested on: MV-4-11 cells
Assay: Gene expression microarray analysis (Affymetrix PrimeView) and GSEA
Assay type: cell-based, human
Design: RFU PODN (11730768_x_at) / Fold change /veh PODN (11730768_x_at) / RFU LINC00158 (11744669_a_at) / Fold change /veh LINC00158 (11744669_a_at) / RFU DUSP10 (11751237_a_at) / Fold change /veh DUSP10 (11751237_a_at) / RFU ID3 (11757404_x_at) / Fold change /veh ID3 (11757404_x_at) / RFU PLEKHG5 (11737974_s_at) / Fold change /veh PLEKHG5 (11737974_s_at) / RFU LRRC4B (11730491_at) / Fold change /veh LRRC4B (11730491_at) / RFU GIMAP4 (11747438_a_at) / Fold change /veh GIMAP4 (11747438_a_at) / RFU KRT8 (11758183_x_at) / Fold change /veh KRT8 (11758183_x_at) / RFU CNN1 (11734310_a_at) / Fold change /veh CNN1 (11734310_a_at) / RFU VPS37D (11726825_at) / Fold change /veh VPS37D (11726825_at) / RFU C10orf10 (11716522_x_at) / Fold change /veh C10orf10 (11716522_x_at) / RFU KIR2DL2 /// KIR2DL4 /// KIR2DL5A /// KIR2DL5B /// KIR2DS1 /// KIR2DS2 /// KIR2DS3 /// KIR2DS4 /// KIR3DL3 /// KIR3DL3 /// KIR3DS1 (11738374_at) / Fold change /veh KIR2DL2 /// KIR2DL4 /// KIR2DL5A /// KIR2DL5B /// KIR2DS1 /// KIR2DS2 /// KIR2DS3 /// KIR2DS4 /// KIR3DL3 /// KIR3DL3 /// KIR3DS1 (11738374_at) / RFU C1QL1 (11718748_at) / Fold change /veh C1QL1 (11718748_at) / RFU TMPRSS4 (11747572_a_at) / Fold change /veh TMPRSS4 (11747572_a_at) / RFU HAMP (11756126_x_at) / Fold change /veh HAMP (11756126_x_at) / RFU RNFT2 (11725882_a_at) / Fold change /veh RNFT2 (11725882_a_at) / RFU NR4A2 (11747474_a_at) / Fold change /veh NR4A2 (11747474_a_at) / RFU ABCC12 (11746883_a_at) / Fold change /veh ABCC12 (11746883_a_at) / RFU TMEM136 (11760407_x_at) / Fold change /veh TMEM136 (11760407_x_at) / RFU CLDN22 /// WWC2 (11732394_at) / Fold change /veh CLDN22 /// WWC2 (11732394_at) / RFU HLA-DPB1 (11760878_x_at) / Fold change /veh HLA-DPB1 (11760878_x_at) / RFU SPINT1 (11716480_a_at) / Fold change /veh SPINT1 (11716480_a_at) / RFU GAP43 (11754022_s_at) / Fold change /veh GAP43 (11754022_s_at) / RFU A4GNT (11735810_at) / Fold change /veh A4GNT (11735810_at) / RFU PRB3 (11715151_x_at) / Fold change /veh PRB3 (11715151_x_at) / RFU TUBB4B (11761932_at) / Fold change /veh TUBB4B (11761932_at) / RFU CAPN14 (11732068_a_at) / Fold change /veh CAPN14 (11732068_a_at) / RFU TMCC2 (11721928_a_at) / Fold change /veh TMCC2 (11721928_a_at) / RFU IRGQ (11745062_a_at) / Fold change /veh IRGQ (11745062_a_at) / RFU FAM174B (11720279_a_at) / Fold change /veh FAM174B (11720279_a_at) / RFU TMPRSS4 (11748680_a_at) / Fold change /veh TMPRSS4 (11748680_a_at) / RFU FAM212B (11763350_a_at) / Fold change /veh FAM212B (11763350_a_at) / RFU PLEKHG5 (11743358_a_at) / Fold change /veh PLEKHG5 (11743358_a_at) / RFU ZSCAN30 (11745921_a_at) / Fold change /veh ZSCAN30 (11745921_a_at) / RFU CMKLR1 (11741424_a_at) / Fold change /veh CMKLR1 (11741424_a_at) / RFU LOC101060620 /// MAPK8IP1 (11723275_at) / Fold change /veh LOC101060620 /// MAPK8IP1 (11723275_at) / RFU SPTSSB (11747773_x_at) / Fold change /veh SPTSSB (11747773_x_at) / RFU PRSS12 (11739890_at) / Fold change /veh PRSS12 (11739890_at) / RFU BIN1 (11741810_x_at) / Fold change /veh BIN1 (11741810_x_at) / RFU WNT11 (11732464_a_at) / Fold change /veh WNT11 (11732464_a_at) / RFU C10orf10 (11716521_a_at) / Fold change /veh C10orf10 (11716521_a_at) / RFU C5orf56 (11738089_at) / Fold change /veh C5orf56 (11738089_at) / RFU CYB561 (11721691_x_at) / Fold change /veh CYB561 (11721691_x_at) / RFU ANKRD19P (11752326_a_at) / Fold change /veh ANKRD19P (11752326_a_at) / RFU OR2T12 /// OR2T33 /// OR2T8 (11738714_s_at) / Fold change /veh OR2T12 /// OR2T33 /// OR2T8 (11738714_s_at) / RFU VCAN (11748164_a_at) / Fold change /veh VCAN (11748164_a_at) / RFU JSRP1 (11732532_at) / Fold change /veh JSRP1 (11732532_at) / RFU KRTAP10-11 (11738290_x_at) / Fold change /veh KRTAP10-11 (11738290_x_at) / RFU MYO3A (11730013_a_at) / Fold change /veh MYO3A (11730013_a_at) / RFU EBF3 (11725865_a_at) / Fold change /veh EBF3 (11725865_a_at) / RFU CAMK2N1 (11719241_x_at) / Fold change /veh CAMK2N1 (11719241_x_at) / RFU C5orf56 (11738088_a_at) / Fold change /veh C5orf56 (11738088_a_at) / RFU OLFML3 (11715873_a_at) / Fold change /veh OLFML3 (11715873_a_at) / RFU LOC100653217 /// NTM (11731650_a_at) / Fold change /veh LOC100653217 /// NTM (11731650_a_at) / RFU MAPK11 (11762145_a_at) / Fold change /veh MAPK11 (11762145_a_at) / RFU FIZ1 (11724087_x_at) / Fold change /veh FIZ1 (11724087_x_at) / RFU OASL (11726364_x_at) / Fold change /veh OASL (11726364_x_at) / RFU SOX15 (11748057_x_at) / Fold change /veh SOX15 (11748057_x_at) / RFU CD79A (11719716_a_at) / Fold change /veh CD79A (11719716_a_at) / RFU HIST1H1D (11736915_at) / Fold change /veh HIST1H1D (11736915_at) / RFU CASKIN2 (11723855_a_at) / Fold change /veh CASKIN2 (11723855_a_at) / RFU LOC730098 (11760151_x_at) / Fold change /veh LOC730098 (11760151_x_at) / RFU OR4N2 (11742367_at) / Fold change /veh OR4N2 (11742367_at) / RFU PRRT2 (11749266_a_at) / Fold change /veh PRRT2 (11749266_a_at) / RFU SNX32 (11753110_a_at) / Fold change /veh SNX32 (11753110_a_at) / RFU CDHR5 (11726645_a_at) / Fold change /veh CDHR5 (11726645_a_at) / RFU RCAN1 (11760418_a_at) / Fold change /veh RCAN1 (11760418_a_at) / RFU FAM167A (11723789_a_at) / Fold change /veh FAM167A (11723789_a_at) / RFU FAM26E (11764081_at) / Fold change /veh FAM26E (11764081_at) / RFU ISYNA1 (11749810_s_at) / Fold change /veh ISYNA1 (11749810_s_at) / RFU ACY1 (11761880_at) / Fold change /veh ACY1 (11761880_at) / RFU 11764098_at / Fold change /veh 11764098_at / RFU SAMD14 (11745864_x_at) / Fold change /veh SAMD14 (11745864_x_at) / RFU NPB (11741838_a_at) / Fold change /veh NPB (11741838_a_at) / RFU TMPRSS6 (11731388_a_at) / Fold change /veh TMPRSS6 (11731388_a_at) / RFU KRTAP10-2 (11738614_at) / Fold change /veh KRTAP10-2 (11738614_at) / RFU ARHGAP8 /// PRR5-ARHGAP8 (11727945_x_at) / Fold change /veh ARHGAP8 /// PRR5-ARHGAP8 (11727945_x_at) / RFU KRTAP5-7 /// NADSYN1 (11734609_at) / Fold change /veh KRTAP5-7 /// NADSYN1 (11734609_at) / RFU RASL12 (11751679_a_at) / Fold change /veh RASL12 (11751679_a_at) / RFU CDKN2B (11736163_a_at) / Fold change /veh CDKN2B (11736163_a_at) / RFU PRF1 (11729649_at) / Fold change /veh PRF1 (11729649_at) / RFU, ZNF638 /// ZNF638-IT1 / Fold change vs veh, ZNF638 /// ZNF638-IT1 / RFU, PANK3 / Fold change vs veh, PANK3 / RFU, SH3YL1 / Fold change vs veh, SH3YL1 / RFU, ZEB2 / Fold change vs veh, ZEB2 / RFU, NRIP1 / Fold change vs veh, NRIP1 / RFU, PTTG1IP / Fold change vs veh, PTTG1IP / RFU, CAPN2 / Fold change vs veh, CAPN2 / RFU, MED14 / Fold change vs veh, MED14 / RFU, SNORA58 / Fold change vs veh, SNORA58 / RFU, C1orf63 / Fold change vs veh, C1orf63 / RFU, LRRFIP1 / Fold change vs veh, LRRFIP1 / RFU, NDUFAF7 / Fold change vs veh, NDUFAF7 / RFU, SLC12A2 / Fold change vs veh, SLC12A2 / RFU, IBTK / Fold change vs veh, IBTK / RFU, ESF1 / Fold change vs veh, ESF1 / Fold change vs veh, TMEM50B / RFU, TAOK1 / Fold change vs veh, TAOK1 / RFU, ACBD3 / Fold change vs veh, ACBD3 / RFU, TMA16 / Fold change vs veh, TMA16 / RFU, RWDD3 / Fold change vs veh, RWDD3 / RFU, BCAT1 / Fold change vs veh, BCAT1 / RFU, EDEM3 / Fold change vs veh, EDEM3 / RFU, TMEM33 / Fold change vs veh, TMEM33 / RFU, WDR75 / Fold change vs veh, WDR75 / RFU, AHCTF1 / Fold change vs veh, AHCTF1 / RFU, TFRC / Fold change vs veh, TFRC / RFU, ZDHHC17 / Fold change vs veh, ZDHHC17 / RFU, NOM1 / Fold change vs veh, NOM1 / RFU, ARL8B / Fold change vs veh, ARL8B / RFU, ZBTB11 / Fold change vs veh, ZBTB11 / RFU, TAMM41 / Fold change vs veh, TAMM41 / RFU, KIAA1704 /// LOC100996395 / Fold change vs veh, KIAA1704 /// LOC100996395 / RFU, ING1 / Fold change vs veh, ING1 / RFU, TRMT61B / Fold change vs veh, TRMT61B / RFU, FUBP3 / Fold change vs veh, FUBP3 / RFU, TP53 / Fold change vs veh, TP53 / RFU, TNKS2 / Fold change vs veh, TNKS2 / RFU, ZFP14 / Fold change vs veh, ZFP14 / RFU, ACTR2 / Fold change vs veh, ACTR2 / RFU, PPP3R1 / Fold change vs veh, PPP3R1 / RFU, PIK3R1 / Fold change vs veh, PIK3R1 / RFU, HNRNPA1 / Fold change vs veh, HNRNPA1 / RFU, RNF170 / Fold change vs veh, RNF170 / RFU, ZNF28 / Fold change vs veh, ZNF28 / RFU, RNGTT / Fold change vs veh, RNGTT / RFU, OGT / Fold change vs veh, OGT / RFU, BRD1 / Fold change vs veh, BRD1 / RFU, MARS / Fold change vs veh, MARS / RFU, ZNF655 / Fold change vs veh, ZNF655 / RFU, FAHD1 / Fold change vs veh, FAHD1 / RFU, BDP1 / Fold change vs veh, BDP1 / RFU, LRRCC1 / Fold change vs veh, LRRCC1 / RFU, ARID1A / Fold change vs veh, ARID1A / RFU, ZNF146 / Fold change vs veh, ZNF146 / RFU, ZNF330 / Fold change vs veh, ZNF330 / RFU, GPN3 / Fold change vs veh, GPN3 / RFU, C9orf123 / Fold change vs veh, C9orf123 / RFU, N4BP2L2 / Fold change vs veh, N4BP2L2 / RFU, ARFIP1 / Fold change vs veh, ARFIP1 / RFU, FAM179B / Fold change vs veh, FAM179B / RFU, BCL10 / Fold change vs veh, BCL10 / RFU, UHRF1BP1L / Fold change vs veh, UHRF1BP1L / RFU, BET1 / Fold change vs veh, BET1 / RFU, CNOT2 / Fold change vs veh, CNOT2 / RFU, ZNF268 / Fold change vs veh, ZNF268 / Fold change vs veh, ZNF507 / RFU, DGCR2 / Fold change vs veh, DGCR2 / RFU, WDSUB1 / Fold change vs veh, WDSUB1 / Fold change vs veh, HSP90B1 /// MIR3652 / RFU, ADSS / Fold change vs veh, ADSS / RFU, GK / Fold change vs veh, GK / RFU, ZNF148 / Fold change vs veh, ZNF148 / RFU, TAF9 / Fold change vs veh, TAF9 / RFU, SLC1A5 / Fold change vs veh, SLC1A5 / RFU, SLMO2 / Fold change vs veh, SLMO2 / RFU, ABCC4 / Fold change vs veh, ABCC4 / RFU, LOC101060439 /// RAP1B / Fold change vs veh, LOC101060439 /// RAP1B / RFU, RFX7 / Fold change vs veh, RFX7 / RFU, GTPBP10 / Fold change vs veh, GTPBP10 / RFU, CNEP1R1 / Fold change vs veh, CNEP1R1 / RFU, BIVM-ERCC5 /// ERCC5 / Fold change vs veh, BIVM-ERCC5 /// ERCC5 / RFU, ILF3 / Fold change vs veh, ILF3 / RFU 11762660_at / Fold change /veh 11762660_at / RFU VCAN (11757783_s_at) / Fold change /veh VCAN (11757783_s_at) / RFU DDX43 (11728927_at) / Fold change /veh DDX43 (11728927_at) / RFU KRT8 (11758188_x_at) / Fold change /veh KRT8 (11758188_x_at) / RFU NKD1 (11759106_at) / Fold change /veh NKD1 (11759106_at) / RFU SRD5A1 (11742802_a_at) / Fold change /veh SRD5A1 (11742802_a_at) / RFU TPSAB1 /// TPSB2 (11721975_s_at) / Fold change /veh TPSAB1 /// TPSB2 (11721975_s_at) / RFU GSTM3 (11746129_a_at) / Fold change /veh GSTM3 (11746129_a_at) / RFU IL23R (11737362_x_at) / Fold change /veh IL23R (11737362_x_at) / RFU TMEM51 (11727254_a_at) / Fold change /veh TMEM51 (11727254_a_at) / RFU PIWIL2 (11732686_x_at) / Fold change /veh PIWIL2 (11732686_x_at) / RFU ORM1 (11744905_x_at) / Fold change /veh ORM1 (11744905_x_at) / RFU CCDC152 (11743942_at) / Fold change /veh CCDC152 (11743942_at) / RFU ECM1 (11717891_a_at) / Fold change /veh ECM1 (11717891_a_at) / RFU IL23R (11748794_a_at) / Fold change /veh IL23R (11748794_a_at) / RFU TNFAIP8L3 (11732012_x_at) / Fold change /veh TNFAIP8L3 (11732012_x_at) / RFU MBOAT4 (11741988_at) / Fold change /veh MBOAT4 (11741988_at) / RFU 11764193_at / Fold change /veh 11764193_at / RFU TMEM53 (11763286_at) / Fold change /veh TMEM53 (11763286_at) / RFU MAGEB2 (11727129_at) / Fold change /veh MAGEB2 (11727129_at) / RFU TMEM200A (11744735_a_at) / Fold change /veh TMEM200A (11744735_a_at) / RFU CCDC152 (11751479_a_at) / Fold change /veh CCDC152 (11751479_a_at) / RFU FAM211A (11726209_a_at) / Fold change /veh FAM211A (11726209_a_at) / RFU RGS16 (11746705_a_at) / Fold change /veh RGS16 (11746705_a_at) / RFU VCAN (11755009_s_at) / Fold change /veh VCAN (11755009_s_at) / RFU RHOB (11743442_s_at) / Fold change /veh RHOB (11743442_s_at) / RFU RGS16 (11720943_a_at) / Fold change /veh RGS16 (11720943_a_at) / RFU RGS16 (11720944_at) / Fold change /veh RGS16 (11720944_at) / RFU, VPS4B / Fold change vs veh, VPS4B / RFU, CREB1 / Fold change vs veh, CREB1 / RFU, DNAJC13 / Fold change vs veh, DNAJC13 / RFU, GNAQ / Fold change vs veh, GNAQ / RFU, CDK5R1 / Fold change vs veh, CDK5R1 / RFU, ZRANB3 / Fold change vs veh, ZRANB3 / RFU, CUL4A / Fold change vs veh, CUL4A / RFU, CCNY / Fold change vs veh, CCNY / RFU, UFL1 / Fold change vs veh, UFL1 / RFU, COG3 / Fold change vs veh, COG3 / RFU, DIAPH2 / Fold change vs veh, DIAPH2 / RFU, SKA2 / Fold change vs veh, SKA2 / RFU, AFF3 / Fold change vs veh, AFF3 / RFU, LMF1 / Fold change vs veh, LMF1 / RFU, IPO11 / Fold change vs veh, IPO11 / RFU, DFFB / Fold change vs veh, DFFB / RFU, FOXP1 / Fold change vs veh, FOXP1 / RFU, CARD8 / Fold change vs veh, CARD8 / RFU, STRN3 / Fold change vs veh, STRN3 / RFU, ADK / Fold change vs veh, ADK / RFU, RASSF2 / Fold change vs veh, RASSF2 / RFU, WIPF1 / Fold change vs veh, WIPF1 / RFU, LARP1B / Fold change vs veh, LARP1B / RFU, RASA1 / Fold change vs veh, RASA1 / RFU, RB1 / Fold change vs veh, RB1 / RFU, PPFIA1 / Fold change vs veh, PPFIA1 / RFU, MAT2A / Fold change vs veh, MAT2A / RFU, CCT5 / Fold change vs veh, CCT5 / RFU, WDR92 / Fold change vs veh, WDR92 / RFU, CUX1 / Fold change vs veh, CUX1 / RFU, TTC7A / Fold change vs veh, TTC7A / RFU, TMEM135 / Fold change vs veh, TMEM135 / RFU, DEPTOR / Fold change vs veh, DEPTOR / RFU, CPM / Fold change vs veh, CPM / RFU, DNAJB6 / Fold change vs veh, DNAJB6 / RFU, CACNA2D3 / Fold change vs veh, CACNA2D3 / RFU, DTX4 / Fold change vs veh, DTX4 / RFU, TFCP2 / Fold change vs veh, TFCP2 / RFU, GMCL1 /// GMCL1P1 / Fold change vs veh, GMCL1 /// GMCL1P1 / RFU, AEBP2 / Fold change vs veh, AEBP2 / RFU, SNHG1 /// SNORD22 /// SNORD25 /// SNORD26 /// SNORD27 /// SNORD28 /// SNORD29 /// SNORD31 / Fold change vs veh, SNHG1 /// SNORD22 /// SNORD25 /// SNORD26 /// SNORD27 /// SNORD28 /// SNORD29 /// SNORD31 / Fold change (Aza/veh), C12orf56 (ProbeSet 11735607_a_at) / Fold change (ACY-1035/veh), C12orf56 (ProbeSet 11735607_a_at) / Fold change (Aza/veh), FGFR1OP (ProbeSet 11751329_s_at) / Fold change (ACY-1035/veh), FGFR1OP (ProbeSet 11751329_s_at) / Fold change (Aza/veh), VPS36 (ProbeSet 11739960_a_at) / Fold change (ACY-1035/veh), VPS36 (ProbeSet 11739960_a_at) / RFU SYPL1 (11715823_x_at) / Fold change /veh SYPL1 (11715823_x_at) / RFU IGFBP7 (11715501_s_at) / Fold change /veh IGFBP7 (11715501_s_at) / RFU REEP3 (11722064_at) / Fold change /veh REEP3 (11722064_at) / RFU IGLL1 (11728026_x_at) / Fold change /veh IGLL1 (11728026_x_at): dose or concentration left out as unconfirmed
Details: ProbeSet 11753623_s_at; LIST D

## Nc1ncn([C@@H]2O[C@H](CO)[C@@H](O)[C@H]2O)c(=O)n1 [azacitidine]
  Fold change vs veh, LOC101060439 /// RAP1B: 0.77
